Test results from publication PMC9516332 (Frontiers in Oncology, 2022).
Read-outs that look alike come from different tables or passages of the source.

Key:
134 cancer cell lines = test: Cell viability assay (ATPlite, 72 hours), IC50 on cancer cell line panel
[1] = target: panel of 255 wild-type kinases (Homo sapiens, UniProt P45983); test: Kinase panel profiling at 1 µmol/L (MSA or IMAP), percentage inhibition; format: biochemical; settings: kinase JNK1; 1 µmol/L single concentration; read-out: %-inhibition at 1 µmol/L, JNK1
[2] = target: panel of 255 wild-type kinases (Homo sapiens, UniProt P49760); test: as above; format: biochemical; settings: kinase CLK2; 1 µmol/L single concentration; read-out: %-inhibition at 1 µmol/L, CLK2
[3] = target: panel of 255 wild-type kinases (Homo sapiens, UniProt P50613); test: as above; format: biochemical; settings: CDK7/CycH/MAT1 kinase assay; 1 µmol/L single concentration; read-out: %-inhibition CDK7/CycH/MAT1
[4] = target: panel of 255 wild-type kinases (Homo sapiens, UniProt Q96RG2); test: as above; format: biochemical; settings: PASK; 1 µmol/L single concentration; read-out: %-inhibition, PASK
[5] = target: panel of 255 wild-type kinases (Homo sapiens, UniProt Q13177); test: as above; format: biochemical; settings: PAK2; 1 µmol/L single concentration; read-out: %-inhibition, PAK2
[6] = target: panel of 255 wild-type kinases (Homo sapiens, UniProt O75582); test: as above; format: biochemical; settings: MSK1; 1 µmol/L single concentration; read-out: %-inhibition, MSK1
[7] = target: panel of 255 wild-type kinases (Homo sapiens, UniProt Q9HBH9); test: as above; format: biochemical; settings: MNK2; 1 µmol/L single concentration; read-out: %-inhibition, MNK2
[8] = target: panel of 255 wild-type kinases (Homo sapiens, UniProt Q00526); test: as above; format: biochemical; settings: CDK3/CycE1 kinase assay; 1 µmol/L single concentration; read-out: %-inhibition CDK3/CycE1
[9] = target: panel of 255 wild-type kinases (Homo sapiens, UniProt P22607); test: as above; format: biochemical; settings: kinase FGFR3; 1 µmol/L single concentration; read-out: %-inhibition at 1 µmol/L, FGFR3

Cc1cc(Nc2ncnc3ccc(NC4=NC(C)(C)CO4)cc23)ccc1Oc1ccn2ncnc2c1 [tucatinib]
IC50 (134 cancer cell lines; Homo sapiens, NCI-H460, read-out: IC50 in cell proliferation assay, NCI-H460 cell line): 30.4 µM | IC50 (134 cancer cell lines; Homo sapiens, NCI-H661, read-out: IC50 in cell proliferation assay, NCI-H661 cell line): 26.9 µM | IC50 (134 cancer cell lines; Homo sapiens, NCI-H716, read-out: IC50 in cell proliferation assay, cell line NCI-H716 (FGFR2-COL14A1)): 29.5 µM | IC50 (134 cancer cell lines; Homo sapiens, NCI-H1650, read-out: IC50 in cell proliferation assay, NCI-H1650 cell line (EGFR exon19del)): > 31.6 µM | IC50 (134 cancer cell lines; Homo sapiens, NCI-H1975, read-out: IC50 in cell proliferation assay, NCI-H1975 cell line (EGFR p.L858R + p.T790M)): 24.5 µM | IC50 (134 cancer cell lines; Homo sapiens, NCI-H2228, read-out: IC50 in cell proliferation assay, NCI-H2228 cell line (EML4-ALK)): > 31.6 µM | IC50 (134 cancer cell lines; Homo sapiens, OVCAR-3, read-out: IC50 in cell proliferation assay, cell line OVCAR-3): > 31.6 µM | IC50 (134 cancer cell lines; Homo sapiens, PFSK-1, read-out: IC50 in cell proliferation assay, cell line PFSK-1): 19 µM | IC50 (134 cancer cell lines; Homo sapiens, RL95-2, read-out: IC50 in cell proliferation assay, cell line RL95-2 (EGFR p.A289V)): 1.76 µM | IC50 (134 cancer cell lines; Homo sapiens, RPMI-7951, read-out: IC50 in cell proliferation assay, cell line RPMI-7951 (BRAF p.V600E)): 15.8 µM | IC50 (134 cancer cell lines; Homo sapiens, RS4-11, read-out: IC50 in cell proliferation assay, cell line RS4;11): 24.4 µM | IC50 (134 cancer cell lines; Homo sapiens, Rec1, read-out: IC50 in cell proliferation assay, cell line REC-1): 12 µM | IC50 (134 cancer cell lines; Homo sapiens, SHP77, read-out: IC50 in cell proliferation assay, cell line SHP-77): 22.8 µM | IC50 (134 cancer cell lines; Homo sapiens, SK-BR-3, read-out: IC50 in cell proliferation assay, cell line SK-BR-3 (ERBB2 amplification)): 0.022 µM | IC50 (134 cancer cell lines; Homo sapiens, SK-N-AS, read-out: IC50 in cell proliferation assay, cell line SK-N-AS): 25.2 µM | IC50 (134 cancer cell lines; Homo sapiens, SK-N-FI, read-out: IC50 in cell proliferation assay, cell line SK-N-FI): > 31.6 µM | IC50 (134 cancer cell lines; Homo sapiens, SK-N-MC, read-out: IC50 in cell proliferation assay, cell line SK-N-MC): 15.1 µM | IC50 (134 cancer cell lines; Homo sapiens, SK-N-SH, read-out: IC50 in cell proliferation assay, cell line SK-N-SH (ALK p.F1174L)): 24.9 µM | IC50 (134 cancer cell lines; Homo sapiens, SNU-5, read-out: IC50 in cell proliferation assay, cell line SNU-5 (MET amplification)): 24.6 µM | IC50 (134 cancer cell lines; Homo sapiens, SNU-16, read-out: IC50 in cell proliferation assay, cell line SNU-16 (FGFR2 amplification)): 20.5 µM | IC50 (134 cancer cell lines; Homo sapiens, SNU-C2B, read-out: IC50 in cell proliferation assay, cell line SNU-C2B (EGFR p.R165Q)): > 31.6 µM | IC50 (134 cancer cell lines; Homo sapiens, SU-DHL-1, read-out: IC50 in cell proliferation assay, cell line SU-DHL-1 (NPM1-ALK)): 15.7 µM | IC50 (134 cancer cell lines; Homo sapiens, SU-DHL-6, read-out: IC50 in cell proliferation assay, cell line SU-DHL-6): 15.3 µM | IC50 (134 cancer cell lines; Homo sapiens, SUP-T1, read-out: IC50 in cell proliferation assay, cell line SUP-T1): > 31.6 µM | IC50 (134 cancer cell lines; Homo sapiens, SW48, read-out: IC50 in cell proliferation assay, cell line SW48 (EGFR p.G719S)): 17.4 µM | IC50 (134 cancer cell lines; Homo sapiens, SW480, read-out: IC50 in cell proliferation assay, cell line SW480): > 31.6 µM | IC50 (134 cancer cell lines; Homo sapiens, SW626, read-out: IC50 in cell proliferation assay, cell line SW626): 23.5 µM | IC50 (134 cancer cell lines; Homo sapiens, SW780, read-out: IC50 in cell proliferation assay, cell line SW780 (FGFR3-BAIAP2L1)): 22.7 µM | IC50 (134 cancer cell lines; Homo sapiens, SW837, read-out: IC50 in cell proliferation assay, cell line SW837): > 31.6 µM | IC50 (134 cancer cell lines; Homo sapiens, SW872, read-out: IC50 in cell proliferation assay, cell line SW872 (BRAF p.V600E)): 31.4 µM | IC50 (134 cancer cell lines; Homo sapiens, SW900, read-out: IC50 in cell proliferation assay, cell line SW900): > 31.6 µM | IC50 (134 cancer cell lines; Homo sapiens, SW948, read-out: IC50 in cell proliferation assay, cell line SW948): > 31.6 µM | IC50 (134 cancer cell lines; Homo sapiens, SW982, read-out: IC50 in cell proliferation assay, cell line SW982 (BRAF p.V600E)): > 31.6 µM | IC50 (134 cancer cell lines; Homo sapiens, SW-620, read-out: IC50 in cell proliferation assay, cell line SW620): > 31.6 µM | IC50 (134 cancer cell lines; Homo sapiens, T98G, read-out: IC50 in cell proliferation assay, cell line T98G): 30.1 µM | IC50 (134 cancer cell lines; Homo sapiens, TCC-SUP, read-out: IC50 in cell proliferation assay, cell line TCCSUP): 30.4 µM | IC50 (134 cancer cell lines; Homo sapiens, THP-1, read-out: IC50 in cell proliferation assay, cell line THP-1): > 31.6 µM | IC50 (134 cancer cell lines; Homo sapiens, U2OS, read-out: IC50 in cell proliferation assay, cell line U2OS): 22.1 µM | IC50 (134 cancer cell lines; Homo sapiens, U-87 MG, read-out: IC50 in cell proliferation assay, cell line U-87MG ATCC): > 31.6 µM | IC50 (134 cancer cell lines; Homo sapiens, U-118-MG, read-out: IC50 in cell proliferation assay, cell line U-118MG): 25 µM | IC50 (134 cancer cell lines; Homo sapiens, UMUC3, read-out: IC50 in cell proliferation assay, cell line UM-UC-3): 8.4 µM | IC50 (134 cancer cell lines; Hs766T, read-out: IC50 in cell proliferation assay, Hs 766T cell line): > 31.6 µM | IC50 (134 cancer cell lines; L-82, read-out: IC50 in cell proliferation assay, L-82 cell line (NPM1-ALK)): > 31.6 µM | IC50 (134 cancer cell lines; Rh30, read-out: IC50 in cell proliferation assay, cell line Rh30): 25.8 µM | IC50 (134 cancer cell lines; read-out: IC50 in cell proliferation assay, 11-18 cell line (EGFR p.L858R)): 0.825 µM | IC50 (134 cancer cell lines; read-out: IC50 in cell proliferation assay, Hs 852.T cell line): > 31.6 µM | IC50 (134 cancer cell lines; read-out: IC50 in cell proliferation assay, JAR cell line): 24.1 µM | IC50 (134 cancer cell lines; read-out: IC50 in cell proliferation assay, cell line 5637): 8.88 µM | IC50 (134 cancer cell lines; read-out: IC50 in cell proliferation assay, cell line A-388): 15.9 µM | IC50 (134 cancer cell lines; read-out: IC50 in cell proliferation assay, cell line DB): 19.2 µM | IC50 (134 cancer cell lines; read-out: IC50 in cell proliferation assay, cell line DEL (NPM1-ALK)): > 31.6 µM | IC50 (134 cancer cell lines; read-out: IC50 in cell proliferation assay, cell line ES-2 (BRAF p.V600E)): 18.4 µM | IC50 (134 cancer cell lines; read-out: IC50 in cell proliferation assay, cell line PA-1): 21.1 µM | IC50 (134 cancer cell lines; read-out: IC50 in cell proliferation assay, cell line PC-3): 26.8 µM | IC50 (134 cancer cell lines; read-out: IC50 in cell proliferation assay, cell line RD): 28.8 µM | IC50 (134 cancer cell lines; read-out: IC50 in cell proliferation assay, cell line RKO (BRAF p.V600E)): 13.1 µM | IC50 (134 cancer cell lines; read-out: IC50 in cell proliferation assay, cell line RL): 24 µM | IC50 (134 cancer cell lines; read-out: IC50 in cell proliferation assay, cell line RT-4 (FGFR3-TACC3)): 9.99 µM | IC50 (134 cancer cell lines; read-out: IC50 in cell proliferation assay, cell line SR (NPM1-ALK)): 16.8 µM | IC50 (134 cancer cell lines; read-out: IC50 in cell proliferation assay, cell line T24): 20.1 µM | IC50 (134 cancer cell lines; read-out: IC50 in cell proliferation assay, cell line TT (RET p.C634W)): > 31.6 µM | IC50 (134 cancer cell lines; read-out: IC50 in cell proliferation assay, cell line VA-ES-BJ): 25.9 µM | inhibition at 1 µM [1]: -3.72% | inhibition at 1 µM [2]: 5% | inhibition at 1 µM [3]: 6% | inhibition at 1 µM [4]: 0.181% | inhibition at 1 µM [5]: -1.88% | inhibition at 1 µM [6]: 2.56% | inhibition at 1 µM [7]: 8% | inhibition at 1 µM [8]: -3.48% | inhibition at 1 µM [9]: 2.63%
